Laboratory results from paper PMC8333062, “Chemical tools for epichaperome-mediated interactome dysfunctions of the central nervous system” (Nature Communications, 2021).
“And” between values parts separate entries of the source, which are not always exact repeats. Equal entries are not always repeated. Where two headings read alike, the source gives them in different places. One block for each compound: values may come before it.

Assays:
[1] = Pharmacokinetic studies in mice (LC-MS/MS); assay type: in vivo, B6D2F1 mice; details: male, B6D2F1, mouse, iv, i.v. 10 mg kg^−1
Method: Blood and brain tissue were collected following euthanasia at the scheduled time points of 5, 30 min, 1, 4, and 8 h following iv dosing and of 30 min, 1, 4, and 8 h following po dosing. Brain samples were immediately flash frozen in liquid nitrogen following collection and stored at −80 °C until analysis. Blood samples were collected into an EDTA tube by heart puncture and centrifuged at 17,000×g for 5 min at 4 °C to separate the plasma and immediately frozen on dry ice and stored at −80 °C until analysis. […] This was homogenized, extracted with methylene chloride, and evaporated on a GeneVac. […] Drug concentration (μM) in the brain was then modified to account for an average water space of 0.8 mL g^−1.

[2] = target: HSP90 pools in JNPL3 (AD transgenic) mouse brain lysate; test: Fluorescence polarization (FP) competitive binding, cy3B-GM; details: read-out: FP relative affinity
patient-derived GSCs = test: GSC viability (CellTiter-Glo, 48 h); assay type: cell-based, human; parameters: %Survival of cells at day 0 (ATP levels): concentration or dose not given beside the values; %Survival (ATP levels): reference not given here; details: for %Survival (ATP levels): 1 μM, 48 h, individual replicates, listed as PU-H71; for %Survival of cells at day 0 (ATP levels): mean
MDA-MB-468 cells = test: Cell viability, ATP levels 72 h; assay type: cell-based, human; details: control MDA-MB-468 of Fig. 6f; mean
[3] = cited from earlier work
MDA-MB-468 tumors [4] = test: In vivo biodistribution of [131I]-PU-HZ151 (gamma counting); parameters: species or system mouse; key to Biodistribution, Lung / Biodistribution, Heart / Biodistribution, Muscle / Biodistribution, Blood / Biodistribution, Bone / Biodistribution, Brain / Biodistribution, tumor: percent injected dose per gram tissue (%ID/g); Biodistribution, Tumor - S / Biodistribution, Tumor - L: unit: %ID/g; details: mean
Method: Activity in the syringe before and after administration was assayed in a dose calibrator (CRC-15R; Capintec) to determine by difference the actual activity administered to each animal. Animals were euthanized by CO2 asphyxiation at different time points post-administration of the tracer and organs including tumors were harvested and weighed. […] Count data were background and decay-corrected to the time of injection, and the percent injected dose per gram (%ID g^−1) for each tissue sample was calculated by using a measured calibration factor to convert count rate to activity and the activity was normalized to the activity injected and the mass of sample assayed to yield the activity concentration in %ID g^−1.

MDA-MB-468 tumors [5] = test: Radioactivity metabolite characterization (radio-HPLC of tumor extracts); assay type: in vivo, mouse; details: 24 h post iv
Method: MDA-MB-468 tumor xenografts were established on the forelimbs of female athymic nude mice (Hsd:Athymic Nude-Foxn1nu; Envigo; 6 weeks old; RRID:MGI:5652489) by subcutaneous (s.c.) injection of 5 × 10^6 cells in a 200 µl cell suspension of a 1:1 v/v mixture of PBS with reconstituted basement membrane (BD Matrigel^TM, Collaborative Biomedical Products Inc., Bedford, MA). […] After 24 h, tumors were harvested and weighed prior to homogenization in acetonitrile/H2O (3:7) using Bullet Blender Tissue Homogenizer (Next Advance Inc.). Tumor-associated radioactivity was extracted in methylene chloride, and the organic layer was separated and dried under vacuum. Samples were reconstituted in 10% CH3CN in 0.1% HCOOH in water were analyzed using Shimadzu (Columbia, Maryland USA) HPLC system equipped with binary pumps LC-20AB, UV detector and sodium iodide radioactivity detector connected to flow-ram (Lab Logic, Tampa, FL) and 250 × 4.6 mm Phenomenex Luna (Torrance, CA) C-18 HPLC column (10 µM, 100 A).

SMILES: CC(C)NCCCn1c(Sc2cc3c(cc2I)OCO3)nc2c(N)ncnc21 [Compound 1, reference compound]
AUC ([1]; brain, read-out: brain exposure, AUC): 0.89 µM·h
AUC ([1]; plasma, read-out: plasma exposure, AUC): 3.47 µM·h
EC50 [2]: 11 nM
PAMPA_BBB (PAMPA-BBB permeability; Supplementary Table 6): 7.3±0.5
Papp at 16 h, 50 μM (PAMPA-BBB permeability; pig, PAMPA, pH 7.4): 7.3 ×10⁻⁶ cm/s
%Survival (ATP levels) (patient-derived GSCs; GSC #5): 41.476% and 5.798% and 38.7842% and 30.5485%
%Survival (ATP levels) (patient-derived GSCs; GSC #6): -6.57% and -27.89% and 1.15% and -9.59%
%Survival (ATP levels) (patient-derived GSCs; GSC #7): -25.19% and -34.61% and -39.02% and -55.29%
%Survival (ATP levels) (patient-derived GSCs; GSC #8): -77.2% and -77.91% and -68.52% and -70.63%
%Survival (ATP levels) (patient-derived GSCs; GSC #9): -61.441% and -69.079% and -26.869% and -37.387% and -60.84%
%Survival (ATP levels) (patient-derived GSCs; GSC #10): -33.379% and -62.081% and -10.588% and -35.788%
%Survival (ATP levels) (patient-derived GSCs; GSC #13): 34.82% and 22.05% and 9.61% and -0.49%
%Survival (ATP levels) (patient-derived GSCs; GSC #15): -13.07% and -44.27% and -29% and -48.76%
%Survival (ATP levels) (patient-derived GSCs; GSC #18): -1.04% and -53.07% and -13.29% and -52.53% and 13.24% and -19.8%
%Survival (ATP levels) (patient-derived GSCs; GSC #19): -8.867% and -20.5667% and 16.158% and 1.691%
%Survival (ATP levels) (patient-derived GSCs; GSC #24): 12.98% and -42.57% and -22.24% and -59.3% and -24.55% and -39.04%
%Survival (ATP levels) (patient-derived GSCs; GSC #30): -64.892% and -76.295% and -41.317% and -38.952%
%Survival (ATP levels) (patient-derived GSCs; GSC #31): 52.42% and 26.79% and -5.03% and -0.87% and 70.08% and 45.37%
%Survival of cells at day 0 (ATP levels) (patient-derived GSCs; GSC# 5): 29.1%
%Survival of cells at day 0 (ATP levels) (patient-derived GSCs; GSC# 6): -10.7%
%Survival of cells at day 0 (ATP levels) (patient-derived GSCs; GSC# 8): -73.6%
%Survival of cells at day 0 (ATP levels) (patient-derived GSCs; GSC# 9): -51.1%
%Survival of cells at day 0 (ATP levels) (patient-derived GSCs; GSC# 10): -35.4%
%Survival of cells at day 0 (ATP levels) (patient-derived GSCs; GSC# 13): 16.5%
%Survival of cells at day 0 (ATP levels) (patient-derived GSCs; GSC# 15): -33.8%
%Survival of cells at day 0 (ATP levels) (patient-derived GSCs; GSC# 17): 16.9%
%Survival of cells at day 0 (ATP levels) (patient-derived GSCs; GSC# 18): -21.1%
%Survival of cells at day 0 (ATP levels) (patient-derived GSCs; GSC# 19): -2.9%
%Survival of cells at day 0 (ATP levels) (patient-derived GSCs; GSC# 24): -29.1%
%Survival of cells at day 0 (ATP levels) (patient-derived GSCs; GSC# 30): -55.4%
%Survival of cells at day 0 (ATP levels) (patient-derived GSCs; GSC# 31): 31.5%
%Survival of cells at day 0 (ATP levels) (MDA-MB-468 cells): -92.5%
SUV average, Brain ([3]; 0.5 h, mean n=14): 0.17 SUV
SUV average, Lung ([3]; 0.5 h, mean n=14): 0.66 SUV
SUV average, Muscle ([3]; 0.5 h, mean n=14): 0.59 SUV
SUV average, Brain ([3]; 3 h, mean n=24): 0.1104 SUV
SUV average, Lung ([3]; 3 h, mean n=24): 0.37 SUV
SUV average, Muscle ([3]; 3 h, mean n=24): 0.43 SUV
SUV average, Brain ([3]; 24 h, mean n=24): 0.0956 SUV
SUV average, Lung ([3]; 24 h, mean n=24): 0.18 SUV
SUV average, Muscle ([3]; 24 h, mean n=24): 0.18 SUV

Biodistribution, Blood (MDA-MB-468 tumors [4]; 1 h): 0.732
Biodistribution, Bone (MDA-MB-468 tumors [4]; 1 h): 0.55
Biodistribution, Brain (MDA-MB-468 tumors [4]; 1 h): 0.397
Biodistribution, Heart (MDA-MB-468 tumors [4]; 1 h): 0.402
Biodistribution, Lung (MDA-MB-468 tumors [4]; 1 h): 0.666
Biodistribution, Muscle (MDA-MB-468 tumors [4]; 1 h): 0.29
Biodistribution, tumor (MDA-MB-468 tumors [4]; 1 h): 1.745
Biodistribution, Blood (MDA-MB-468 tumors [4]; 4 h): 0.1086
Biodistribution, Bone (MDA-MB-468 tumors [4]; 4 h): 0.07
Biodistribution, Brain (MDA-MB-468 tumors [4]; 4 h): 0.015
Biodistribution, Heart (MDA-MB-468 tumors [4]; 4 h): 0.063
Biodistribution, Lung (MDA-MB-468 tumors [4]; 4 h): 0.296
Biodistribution, Muscle (MDA-MB-468 tumors [4]; 4 h): 0.034
Biodistribution, Tumor - L (MDA-MB-468 tumors [4]; 4 h): 0.5106
Biodistribution, Tumor - S (MDA-MB-468 tumors [4]; 4 h): 0.5895
Biodistribution, Blood (MDA-MB-468 tumors [4]; 6 h): 0.08349
Biodistribution, Bone (MDA-MB-468 tumors [4]; 6 h): 0.05
Biodistribution, Brain (MDA-MB-468 tumors [4]; 6 h): 0.01
Biodistribution, Heart (MDA-MB-468 tumors [4]; 6 h): 0.045
Biodistribution, Lung (MDA-MB-468 tumors [4]; 6 h): 0.237
Biodistribution, Muscle (MDA-MB-468 tumors [4]; 6 h): 0.044
Biodistribution, Tumor - L (MDA-MB-468 tumors [4]; 6 h): 0.4547
Biodistribution, Tumor - S (MDA-MB-468 tumors [4]; 6 h): 0.5075
Biodistribution, tumor (MDA-MB-468 tumors [4]; 6 h): 0.5792
Biodistribution, Blood (MDA-MB-468 tumors [4]; 8 h): 0.05883
Biodistribution, Bone (MDA-MB-468 tumors [4]; 8 h): 0.033
Biodistribution, Brain (MDA-MB-468 tumors [4]; 8 h): 0.005
Biodistribution, Heart (MDA-MB-468 tumors [4]; 8 h): 0.027
Biodistribution, Lung (MDA-MB-468 tumors [4]; 8 h): 0.129
Biodistribution, Muscle (MDA-MB-468 tumors [4]; 8 h): 0.023
Biodistribution, Tumor - L (MDA-MB-468 tumors [4]; 8 h): 0.3061
Biodistribution, Tumor - S (MDA-MB-468 tumors [4]; 8 h): 0.2819
Biodistribution, Blood (MDA-MB-468 tumors [4]; 12 h): 0.02368
Biodistribution, Bone (MDA-MB-468 tumors [4]; 12 h): 0.012
Biodistribution, Brain (MDA-MB-468 tumors [4]; 12 h): 0.002
Biodistribution, Heart (MDA-MB-468 tumors [4]; 12 h): 0.009
Biodistribution, Lung (MDA-MB-468 tumors [4]; 12 h): 0.04
Biodistribution, Muscle (MDA-MB-468 tumors [4]; 12 h): 0.006
Biodistribution, Tumor - L (MDA-MB-468 tumors [4]; 12 h): 0.2552
Biodistribution, Tumor - S (MDA-MB-468 tumors [4]; 12 h): 0.2535
Biodistribution, Blood (MDA-MB-468 tumors [4]; first column group, 24 h): 0.002331
Biodistribution, Bone (MDA-MB-468 tumors [4]; first column group, 24 h): 0.016
Biodistribution, Brain (MDA-MB-468 tumors [4]; first column group, 24 h): 0.001
Biodistribution, Heart (MDA-MB-468 tumors [4]; first column group, 24 h): 0.003
Biodistribution, Lung (MDA-MB-468 tumors [4]; first column group, 24 h): 0.012
Biodistribution, Muscle (MDA-MB-468 tumors [4]; first column group, 24 h): 0.002
Biodistribution, Tumor - L (MDA-MB-468 tumors [4]; first column group, 24 h): 0.2045
Biodistribution, Tumor - S (MDA-MB-468 tumors [4]; first column group, 24 h): 0.1544
Biodistribution, Bone (MDA-MB-468 tumors [4]; first column group, 48 h): 0.004
Biodistribution, Brain (MDA-MB-468 tumors [4]; first column group, 48 h): 0
Biodistribution, Heart (MDA-MB-468 tumors [4]; first column group, 48 h): 0.002
Biodistribution, Lung (MDA-MB-468 tumors [4]; first column group, 48 h): 0.004
Biodistribution, Muscle (MDA-MB-468 tumors [4]; first column group, 48 h): 0.001
Biodistribution, Tumor - L (MDA-MB-468 tumors [4]; first column group, 48 h): 0.08346
Biodistribution, Tumor - S (MDA-MB-468 tumors [4]; first column group, 48 h): 0.08811
Biodistribution, Blood (MDA-MB-468 tumors [4]; second column group, 24 h): 0.0041
Biodistribution, Bone (MDA-MB-468 tumors [4]; second column group, 24 h): 0.012
Biodistribution, Brain (MDA-MB-468 tumors [4]; second column group, 24 h): 0.00319
Biodistribution, Heart (MDA-MB-468 tumors [4]; second column group, 24 h): 0.0138
Biodistribution, Lung (MDA-MB-468 tumors [4]; second column group, 24 h): 0.061
Biodistribution, Muscle (MDA-MB-468 tumors [4]; second column group, 24 h): 0.002
Biodistribution, tumor (MDA-MB-468 tumors [4]; second column group, 24 h): 0.1057
Biodistribution, Blood (MDA-MB-468 tumors [4]; second column group, 48 h): 0.00228
Biodistribution, Bone (MDA-MB-468 tumors [4]; second column group, 48 h): 0.0182
Biodistribution, Brain (MDA-MB-468 tumors [4]; second column group, 48 h): 0.00219
Biodistribution, Heart (MDA-MB-468 tumors [4]; second column group, 48 h): 0.00513
Biodistribution, Lung (MDA-MB-468 tumors [4]; second column group, 48 h): 0.0472
Biodistribution, Muscle (MDA-MB-468 tumors [4]; second column group, 48 h): 0.018
Biodistribution, tumor (MDA-MB-468 tumors [4]; second column group, 48 h): 0.03983
SMILES: CC(C)(C)CNCCn1c(Sc2cc3c(cc2[131I])OCO3)nc2c(N)ncnc21 [[131I]-PU-HZ151]
species in tumor extract (MDA-MB-468 tumors [5]): only [^131I]-PU-HZ151 contributed to tumor-associated radioactivity
